# Measurements reported in patent US9452986B2, “6-heteroaryloxy- or 6-aryloxy-quinoline-2-carboxamides and method of use” (AbbVie Inc., priority 2014, dated 2016).
# Biological target: recombinant human Nav1.7 (Homo sapiens (Human), UniProt Q15858)
# Test: FRET-based membrane potential assay, recombinant human sodium channel Nav1.7
# Format: cell-based
# Conditions: HEK293 cells stably expressing recombinant human Nav1.7; veratridine + scorpion venom depolarization; read-out: FRET-Membrane Potential Nav1.7 IC50
# Method in brief: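 Channel activation used veratridine at its EC80, set by a dilution curve each experiment, together with Leiurus scorpion venom, added 3 min after compound. Membrane-potential ratio signals from FLIPR Tetra in HEPES-buffered HBSS were fitted to a four-parameter Hill equation for percent inhibition and IC50.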
# Chain of recombinant human Nav1.7 (Q15858 whole entry): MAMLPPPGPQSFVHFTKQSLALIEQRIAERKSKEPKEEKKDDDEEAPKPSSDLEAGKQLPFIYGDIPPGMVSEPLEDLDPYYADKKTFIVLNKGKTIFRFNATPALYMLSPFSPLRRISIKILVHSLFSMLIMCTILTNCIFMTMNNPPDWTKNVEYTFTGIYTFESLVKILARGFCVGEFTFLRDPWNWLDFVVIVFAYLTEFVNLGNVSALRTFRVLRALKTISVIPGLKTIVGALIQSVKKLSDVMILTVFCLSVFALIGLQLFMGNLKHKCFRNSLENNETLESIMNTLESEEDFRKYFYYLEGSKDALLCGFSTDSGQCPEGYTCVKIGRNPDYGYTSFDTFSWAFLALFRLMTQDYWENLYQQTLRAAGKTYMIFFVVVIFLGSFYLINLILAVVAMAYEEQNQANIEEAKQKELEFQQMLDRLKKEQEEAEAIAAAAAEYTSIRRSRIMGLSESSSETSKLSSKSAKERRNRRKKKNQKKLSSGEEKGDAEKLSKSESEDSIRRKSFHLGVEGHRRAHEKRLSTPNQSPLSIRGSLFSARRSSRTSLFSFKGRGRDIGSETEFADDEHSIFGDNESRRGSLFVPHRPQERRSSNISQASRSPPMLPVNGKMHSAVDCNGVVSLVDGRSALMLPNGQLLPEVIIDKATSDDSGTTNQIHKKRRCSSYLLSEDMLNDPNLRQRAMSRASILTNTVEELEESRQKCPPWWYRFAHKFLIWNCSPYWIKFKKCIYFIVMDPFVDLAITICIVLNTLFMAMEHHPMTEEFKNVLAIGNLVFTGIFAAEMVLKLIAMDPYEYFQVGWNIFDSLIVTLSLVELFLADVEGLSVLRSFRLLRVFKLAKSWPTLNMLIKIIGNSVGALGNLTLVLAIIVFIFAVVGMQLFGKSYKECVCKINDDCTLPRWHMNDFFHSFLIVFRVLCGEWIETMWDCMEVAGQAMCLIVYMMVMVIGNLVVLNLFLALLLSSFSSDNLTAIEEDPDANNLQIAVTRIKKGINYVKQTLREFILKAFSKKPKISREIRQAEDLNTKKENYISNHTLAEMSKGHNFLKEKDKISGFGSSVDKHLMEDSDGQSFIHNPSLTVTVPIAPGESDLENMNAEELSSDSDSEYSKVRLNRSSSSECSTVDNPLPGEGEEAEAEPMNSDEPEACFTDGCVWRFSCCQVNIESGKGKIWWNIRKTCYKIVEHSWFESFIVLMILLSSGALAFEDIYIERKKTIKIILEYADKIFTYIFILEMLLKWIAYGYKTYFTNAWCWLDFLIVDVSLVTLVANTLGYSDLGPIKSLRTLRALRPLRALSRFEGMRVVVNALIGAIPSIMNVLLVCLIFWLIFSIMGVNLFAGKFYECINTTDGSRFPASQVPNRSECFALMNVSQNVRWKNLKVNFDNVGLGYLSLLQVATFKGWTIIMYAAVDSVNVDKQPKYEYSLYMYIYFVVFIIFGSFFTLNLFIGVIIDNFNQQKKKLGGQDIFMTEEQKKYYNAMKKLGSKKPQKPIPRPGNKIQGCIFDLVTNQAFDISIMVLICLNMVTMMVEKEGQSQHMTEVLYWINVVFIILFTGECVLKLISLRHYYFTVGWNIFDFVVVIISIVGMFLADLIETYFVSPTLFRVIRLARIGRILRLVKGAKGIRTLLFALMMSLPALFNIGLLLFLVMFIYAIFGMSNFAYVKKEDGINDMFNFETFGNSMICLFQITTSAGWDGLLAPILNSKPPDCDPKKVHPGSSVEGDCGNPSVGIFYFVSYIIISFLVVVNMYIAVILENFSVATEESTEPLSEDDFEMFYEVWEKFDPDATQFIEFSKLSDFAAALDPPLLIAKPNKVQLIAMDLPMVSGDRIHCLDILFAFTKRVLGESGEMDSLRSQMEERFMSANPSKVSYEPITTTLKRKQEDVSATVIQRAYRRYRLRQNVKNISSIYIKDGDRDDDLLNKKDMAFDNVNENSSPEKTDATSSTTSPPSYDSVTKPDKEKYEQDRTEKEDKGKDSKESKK
row,SMILES,IC50
1,"CO[C@H]1CN(C(=O)c2ccc3cc(Oc4ccc(C(F)(F)F)cn4)ccc3n2)C[C@H]1OC [Example 324, [cis-3,4-dimethoxypyrrolidin-1-yl](6-{[5-(trifluoromethyl)pyridin-2-yl]oxy}quinolin-2-yl)methanone]",5.01 µM
2,"NC(=O)[C@H]1CCCN(C(=O)c2ccc3cc(Oc4ccc(C(F)(F)F)cn4)ccc3n2)C1 [Example 325, (3S)-1-[(6-{[5-(trifluoromethyl)pyridin-2-yl]oxy}quinolin-2-yl)carbonyl]piperidine-3-carboxamide]",8.58 µM
3,"O=C(NC1CCOCC1)c1ccc2cc(Oc3ccc(C(F)(F)F)cn3)ccc2n1 [Example 327, N-(tetrahydro-2H-pyran-4-yl)-6-{[5-(trifluoromethyl)pyridin-2-yl]oxy}quinoline-2-carboxamide]",0.557 µM
4,"N#Cc1ccc(Oc2ccc3nc(C(=O)N4CCNCC4)ccc3c2)nc1 [Example 328, 6-{[2-(piperazin-1-ylcarbonyl)quinolin-6-yl]oxy}nicotinonitrile]",> 20 µM
5,"O=C(c1ccc2cc(Oc3ccc(C(F)(F)F)cn3)ccc2n1)N1CCN2C(=O)OCC2C1 (centres unmarked) [Example 329, 7-[(6-{[5-(trifluoromethyl)pyridin-2-yl]oxy}quinolin-2-yl)carbonyl]hexahydro[1,3]oxazolo[3,4-a]pyrazin-3-one]",9.28 µM
6,"O=C(c1ccc2cc(Oc3ccc(C(F)(F)F)cn3)ccc2n1)N1CCC(F)(F)CC1 [Example 330, (4,4-difluoropiperidin-1-yl)(6-{[5-(trifluoromethyl)pyridin-2-yl]oxy}quinolin-2-yl)methanone]",2.95 µM
7,"O=C(c1ccc2cc(Oc3ccc(C(F)(F)F)cn3)ccc2n1)N1CCN(S(=O)(=O)CCC(F)(F)F)CC1 [Example 332, (6-{[5-(trifluoromethyl)pyridin-2-yl]oxy}quinolin-2-yl) {4-[(3,3,3-trifluoropropyl)sulfonyl]piperazin-1-yl}methanone]",10.1 µM
8,"O=C(c1ccc2cc(Oc3ccc(C(F)(F)F)cn3)ccc2n1)N1CCN2C(=O)OC[C@H]2C1 [Example 333, (8aR)-7-[(6-{[5-(trifluoromethyl)pyridin-2-yl]oxy}quinolin-2-yl)carbonyl]hexahydro[1,3]oxazolo[3,4-a]pyrazin-3-one]",> 20 µM
9,"CC(C)(O)CCNC(=O)c1ccc2cc(Oc3ccc(C(F)(F)F)cn3)ccc2n1 [Example 334, N-(3-hydroxy-3-methylbutyl)-6-{[5-(trifluoromethyl)pyridin-2-yl]oxy}quinoline-2-carboxamide]",3.44 µM
10,"O=C(NC[C@H]1CCCN1)c1ccc2cc(Oc3ccc(C(F)(F)F)cn3)ccc2n1 [Example 335, N-[(2R)-pyrrolidin-2-ylmethyl]-6-{[5-(trifluoromethyl)pyridin-2-yl]oxy}quinoline-2-carboxamide]",0.573 µM
11,"O=C(NCC1(O)CCC1)c1ccc2cc(Oc3ccc(C(F)(F)F)cn3)ccc2n1 [Example 336, N-[(1-hydroxycyclobutyl)methyl]-6-{[5-(trifluoromethyl)pyridin-2-yl]oxy}quinoline-2-carboxamide]",0.439 µM
12,"NCCNC(=O)c1ccc2cc(Oc3ccc(C(F)(F)F)cn3)ccc2n1 [Example 338, N-(2-aminoethyl)-6-{[5-(trifluoromethyl)pyridin-2-yl]oxy}quinoline-2-carboxamide]",0.984 µM
13,"O=C(c1ccc2cc(Oc3ccc(C(F)(F)F)cn3)ccc2n1)N1CCOC(CO)C1 (centres unmarked) [Example 339, [2-(hydroxymethyl)morpholin-4-yl](6-{[5-(trifluoromethyl)pyridin-2-yl]oxy}quinolin-2-yl)methanone]",14.4 µM
14,"O=C(c1ccc2cc(Oc3ccc(C(F)(F)F)cn3)ccc2n1)N1CCOC(CF)C1 (centres unmarked) [Example 340, [2-(fluoromethyl)morpholin-4-yl](6-{[5-(trifluoromethyl)pyridin-2-yl]oxy}quinolin-2-yl)methanone]",2.9 µM
15,"O=C(c1ccc2cc(Oc3ccc(C(F)(F)F)cn3)ccc2n1)N1CCC2(CCC2O)CC1 (centres unmarked) [Example 341, (1-hydroxy-7-azaspiro[3.5]non-7-yl)(6-{[5-(trifluoromethyl)pyridin-2-yl]oxy}quinolin-2-yl)methanone]",4.23 µM
16,"O=C(c1ccc2cc(Oc3ccc(C(F)(F)F)cn3)ccc2n1)N1CCc2nc[nH]c(=O)c2C1 [Example 342, 6-[(6-{[5-(trifluoromethyl)pyridin-2-yl]oxy}quinolin-2-yl)carbonyl]-5,6,7,8-tetrahydropyrido[4,3-d]pyrimidin-4(3H)-one]",3.38 µM
17,"O=C1CN(C(=O)c2ccc3cc(Oc4ccc(C(F)(F)F)cn4)ccc3n2)CCCN1 [Example 343, 4-[(6-{[5-(trifluoromethyl)pyridin-2-yl]oxy}quinolin-2-yl)carbonyl]-1,4-diazepan-2-one]",> 20 µM
18,"O=C(c1ccc2cc(Oc3ccc(C(F)(F)F)cn3)ccc2n1)N1CCC2(CC(O)C2)C1 (centres unmarked) [Example 345, (2-hydroxy-6-azaspiro[3.4]oct-6-yl)(6-{[5-(trifluoromethyl)pyridin-2-yl]oxy}quinolin-2-yl)methanone]",9.15 µM
19,"O=C(NCCF)c1ccc2cc(Oc3ccc(C(F)(F)F)cn3)ccc2n1 [Example 346, N-(2-fluoroethyl)-6-{[5-(trifluoromethyl)pyridin-2-yl]oxy}quinoline-2-carboxamide]",2.5 µM
20,"O=C(NCC(F)F)c1ccc2cc(Oc3ccc(C(F)(F)F)cn3)ccc2n1 [Example 347, N-(2,2-difluoroethyl)-6-{[5-(trifluoromethyl)pyridin-2-yl]oxy}quinoline-2-carboxamide]",2.63 µM
21,"CS[C@H]1CN(C(=O)c2ccc3cc(Oc4ccc(C(F)(F)F)cn4)ccc3n2)C[C@@H]1O [Example 348, [(3S,4S)-3-hydroxy-4-(methylsulfanyl)pyrrolidin-1-yl](6-{[5-(trifluoromethyl)pyridin-2-yl]oxy}quinolin-2-yl)methanone]",3.9 µM
22,"O=C(NC1CCCS(=O)(=O)C1)c1ccc2cc(Oc3ccc(C(F)(F)F)cn3)ccc2n1 (centres unmarked) [Example 349, N-(1,1-dioxidotetrahydro-2H-thiopyran-3-yl)-6-{[5-(trifluoromethyl)pyridin-2-yl]oxy}quinoline-2-carboxamide]",3.25 µM
23,"O=C(c1ccc2cc(Oc3ccc(C(F)(F)F)cn3)ccc2n1)N1CCC2(CC1)CC(O)C2 [Example 354, (2-hydroxy-7-azaspiro[3.5]non-7-yl)(6-{[5-(trifluoromethyl)pyridin-2-yl]oxy}quinolin-2-yl)methanone]",12.4 µM
24,"O=C(NCCC(F)(F)F)c1ccc2cc(Oc3ccc(C(F)(F)F)cn3)ccc2n1 [Example 355, 6-{[5-(trifluoromethyl)pyridin-2-yl]oxy}-N-(3,3,3-trifluoropropyl)quinoline-2-carboxamide]",1.27 µM
25,"C[C@@H]1CN2C[C@@H](F)C[C@@H]2CN1C(=O)c1ccc2cc(Oc3ccc(C(F)(F)F)cn3)ccc2n1 [Example 357, [(3R,7S,8aR)-7-fluoro-3-methylhexahydropyrrolo[1,2-a]pyrazin-2(1H)-yl](6-{[5-(trifluoromethyl)pyridin-2-yl]oxy}quinolin-2-yl)methanone]",2.72 µM
26,"C[C@@H]1CN2CC(F)(F)C[C@@H]2CN1C(=O)c1ccc2cc(Oc3ccc(C(F)(F)F)cn3)ccc2n1 [Example 358, [(3R,8aR)-7,7-difluoro-3-methylhexahydropyrrolo[1,2-a]pyrazin-2(1H)-yl](6-{[5-(trifluoromethyl)pyridin-2-yl]oxy}quinolin-2-yl)methanone]",1.31 µM

# Same assay, conditions: read-out: FRET-Membrane Potential Nav1.7 IC50
row,SMILES,IC50
1,"CNC(=O)C1CN(C(=O)c2ccc3cc(Oc4ccc(C(F)(F)F)cn4)ccc3n2)CCN1 (centres unmarked) [Example 322, N-methyl-4-[(6-{[5-(trifluoromethyl)pyridin-2-yl]oxy}quinolin-2-yl)carbonyl]piperazine-2-carboxamide]",12 µM
2,"O=C(NCCO)c1ccc2cc(Oc3ccc(C(F)(F)F)cn3)ccc2n1 [Example 326, N-(2-hydroxyethyl)-6-{[5-(trifluoromethyl)pyridin-2-yl]oxy}quinoline-2-carboxamide]",3.15 µM
3,"O=C(N[C@@H]1CCNC1)c1ccc2cc(Oc3ccc(C(F)(F)F)cn3)ccc2n1 [Example 331, N-[(3R)-pyrrolidin-3-yl]-6-{[5-(trifluoromethyl)pyridin-2-yl]oxy}quinoline-2-carboxamide]",2.64 µM
4,"O=C(NCCN1CCCC1=O)c1ccc2cc(Oc3ccc(C(F)(F)F)cn3)ccc2n1 [Example 337, N-[2-(2-oxopyrrolidin-1-yl)ethyl]-6-{[5-(trifluoromethyl)pyridin-2-yl]oxy}quinoline-2-carboxamide]",1.66 µM
5,"O=C(c1ccc2cc(Oc3ccc(C(F)(F)F)cn3)ccc2n1)N1CCC2(C1)OCCO2 [Example 352, 1,4-dioxa-7-azaspiro[4.4]non-7-yl(6-{[5-(trifluoromethyl)pyridin-2-yl]oxy}quinolin-2-yl)methanone]",3.28 µM
6,"CON=C1CCN(C(=O)c2ccc3cc(Oc4ccc(C(F)(F)F)cn4)ccc3n2)CC1 [Example 353, [4-(methoxyimino)piperidin-1-yl](6-{[5-(trifluoromethyl)pyridin-2-yl]oxy}quinolin-2-yl)methanone]",3.63 µM
7,"O=C(c1ccc2cc(Oc3ccc(C(F)(F)F)cn3)ccc2n1)N1CCN2C[C@@H](F)C[C@@H]2C1 [Example 356, [(7S,8aR)-7-fluorohexahydropyrrolo[1,2-a]pyrazin-2(1H)-yl](6-{[5-(trifluoromethyl)pyridin-2-yl]oxy}quinolin-2-yl)methanone]",3.36 µM
8,"O=C(c1ccc2cc(Oc3ccc(C(F)(F)F)cn3)ccc2n1)N1CCN2C[C@@H](F)C[C@H]2C1 [Example 359, [(7S,8aS)-7-fluorohexahydropyrrolo[1,2-a]pyrazin-2(1H)-yl](6-{[5-(trifluoromethyl)pyridin-2-yl]oxy}quinolin-2-yl)methanone]",4.71 µM
9,"O=C(c1ccc2cc(Oc3ccc(C(F)(F)F)cn3)ccc2n1)N1CCc2[nH]cnc2C1 [Example 360, 1,4,6,7-tetrahydro-5H-imidazo[4,5-c]pyridin-5-yl(6-{[5-(trifluoromethyl)pyridin-2-yl]oxy}quinolin-2-yl)methanone]",1.09 µM
